Measurements reported in patent US7306789B2, “Method of stimulating hair growth using benzopyrans” (Warner-Lambert Company, LLC, priority 2002, dated 2007).

Columns and labels:
[1] = In vivo clearance in dog; settings: low exposure to unchanged drug following oral or systemic administration
Description: (§1) The compound is cleared by conjugation to produce the glucuronide and sulfate metabolites. The compound and its metabolites are rapidly taken up by the liver and excreted in the bile. Thus, following topical administration, any absorbed benzopyran is subject to high hepatic extraction, and thus low systemic exposure.

[2] = In vivo clearance in human; settings: low exposure to unchanged drug following oral or systemic administration
Description: as §1

[3] = In vivo clearance in rat; settings: low exposure to unchanged drug following oral or systemic administration
Description: as §1

[4] = tested on: Female C3H/HeN mice; assay: Mouse hair growth model (topical administration); type: in vivo; settings: for Day on which 50% incidence of hair growth occurred: topical
Description: The effect of the benzopyran compound (3S,4R)-3,4-dihydro-4-(2,3-dihydro-2-methyl-3-oxopyridazin-6-yl)oxy-3-hydroxy-6-(3-hydroxyphenyl)sulphonyl-2,2,3-trimethyl-2H-benzo[b]pyran (Compound 1) on hair growth was evaluated by topical administration of the compound to mice. Compound 1 may be made according to the methods described in U.S. Pat. Nos. 5,912,244 and 6,071,938.
Female C3H/HeN mice, 42-46 days old (Charles River Laboratories, Raleigh, N.C.) were used for the study. The hair follicles of mice at this age are in the second telogen phase, which usually lasts from 6 to 9 weeks, providing a wide enough window to test compounds for their ability to induce earlier onset of anagen. Only mice with pink skin, a visual indication of the telogen phase, were selected for inclusion in the study.
Test compounds, including Compound 1, the potassium channel opener minoxidil (marketed as Rogaine® containing 2% minoxidil), and cyclosporin A, were dissolved in a vehicle consisting of propylene glycol (30%) and ethanol (70%). A test compound dissolved in vehicle, or a vehicle control (30/70 propylene glycol/ethanol, unless otherwise specified) was applied topically to the clipped dorsal region of the mice in each test group (7-10 mice) in a volume of 20 μl/cm^2. Treatments were applied once or twice daily, 5 days/week.
The treatment area was observed and graded for signs of hair growth and local skin irritation. The hair growth response was quantified by recording, for each animal, the day on which signs of hair growth first appeared over the treated area. The first sign of anagen was the darkening of skin color as melanocytes in the follicles started to synthesize melanin in preparation for the production of pigmented hairs. The response time was measured as the number of days following initiation of treatment when hair growth was present in 50% of the mice in a given group.

[5] = In vitro metabolism experiments (conjugation); type: in vitro ADME
Description: as §1

For `Cn1nc(O[C@@H]2c3cc(S(=O)(=O)c4cccc(O)c4)ccc3OC(C)(C)[C@@]2(C)O)ccc1=O` [Compound 1, (3S,4R)-3,4-dihydro-4-(2,3-dihydro-2-methyl-3-oxopyridazin-6-yl)oxy-3-hydroxy-6-(3-hydroxyphenyl)sulphonyl-2,2,3-trimethyl-2H-benzo[b]pyran], the Clearance [1] was “rapid clearance”, the Clearance [2] was “rapid clearance” and the Clearance [3] was “rapid clearance”. The “Quality of hair growth over the treated area” value ([4]; all cases of hair growth stimulation) was “full and thick hair growth”, the Hair growth stimulation ([4]; applied topically at 0.3% or 1% once or twice daily for five days or up to 4 weeks) was “stimulated hair growth” and the “Efficacy relative to lower doses” value ([4]; concentrations greater than 1%) was “less efficacious than lower doses”. For the same compound, the “Behaviour of drug on the skin” value ([4]; concentrations greater than 1%, vehicle propylene glycol/ethanol) was “precipitation of drug on the skin”, the Hair growth ([4]; concentrations lower than 0.3% (0.1% to 0.03%)) was “not observed” and the “Local irritation or other adverse effects” value ([4]; mice treated for 2 weeks with 5%) was “No local irritation or other adverse effects”. For the same compound, the “Day on which 50% incidence of hair growth occurred” value (shortened to “Day on which 50% incidence”) ([4]; dose 0.03%, 1 dose/day, duration 1 week, study 5 (vehicle >35)) was over 35 days, the “Day on which 50% incidence” value ([4]; dose 0.03%, 1 dose/day, duration 1 week, study 6 (vehicle >35)) was over 35 days and the “Day on which 50% incidence” value ([4]; dose 0.03%, 1 dose/day, duration 1 week, study 7 (vehicle >35)) was over 35 days. The “Day on which 50% incidence” value ([4]; dose 0.03%, 1 dose/day, duration 1 week, study 9 (vehicle >35)) was over 35 days, the “Day on which 50% incidence” value ([4]; dose 0.1%, 1 dose/day, duration 1 week, study 5 (vehicle >35)) was over 35 days and the “Day on which 50% incidence” value ([4]; dose 0.1%, 1 dose/day, duration 1 week, study 6 (vehicle >35)) was over 35 days. For the same compound, the “Day on which 50% incidence” value ([4]; dose 0.3%, 1 dose/day, duration 1 week, study 4 (vehicle 25)) was 11 days, the “Day on which 50% incidence” value ([4]; dose 0.3%, 1 dose/day, duration 1 week, study 5 (vehicle >35)) was over 35 days and the “Day on which 50% incidence” value ([4]; dose 0.3%, 1 dose/day, duration 1 week, study 6 (vehicle >35)) was over 35 days. For the same compound, the “Day on which 50% incidence” value ([4]; dose 0.3%, 1 dose/day, duration 1 week, study 7 (vehicle >35)) was 14 days, the “Day on which 50% incidence” value ([4]; dose 0.3%, 1 dose/day, duration 1 week, study 9 (vehicle >35)) was 16 days and the “Day on which 50% incidence” value ([4]; dose 0.3%, 1 dose/day, duration 1 week, study 10 (vehicle >35)) was 21 days. For the same compound, the “Day on which 50% incidence” value ([4]; dose 0.3%, 1 dose/day, duration 1 week, study 11 (vehicle 56)) was 25 days, the “Day on which 50% incidence” value ([4]; dose 0.3%, 1 dose/day, duration 1 week, study 12 (vehicle >35)) was over 35 days and the “Day on which 50% incidence” value ([4]; dose 0.3%, 1 dose/day, duration 1 week, study 13 (vehicle 56)) was 28 days. The “Day on which 50% incidence” value ([4]; dose 0.3%, 1 dose/day, duration 4 weeks, study 10 (vehicle >35)) was 23 days, the “Day on which 50% incidence” value ([4]; dose 0.3%, 1 dose/day, duration 4 weeks, study 12 (vehicle >35)) was 16 days and the “Day on which 50% incidence” value ([4]; dose 0.3%, 1 dose/day, duration 4 weeks, study 13 (vehicle 56)) was 35 days. For the same compound, the “Day on which 50% incidence” value ([4]; dose 1%, 1 dose/day, duration 1 week, study 3 (vehicle 21)) was 14 days, the “Day on which 50% incidence” value ([4]; dose 1%, 1 dose/day, duration 1 week, study 4 (vehicle 25)) was 11 days and the “Day on which 50% incidence” value ([4]; dose 1%, 1 dose/day, duration 1 week, study 5 (vehicle >35)) was over 35 days. The “Day on which 50% incidence” value ([4]; dose 1%, 1 dose/day, duration 1 week, study 8 (vehicle >35)) was 21 days, the “Day on which 50% incidence” value ([4]; dose 1%, 1 dose/day, duration 1 week, study 9 (vehicle >35)) was 28 days and the “Day on which 50% incidence” value ([4]; dose 1%, 1 dose/day, duration 1 week, study 10 (vehicle >35)) was over 35 days. The “Day on which 50% incidence” value ([4]; dose 1%, 1 dose/day, duration 1 week, study 12 (vehicle >35)) was 16 days, the “Day on which 50% incidence” value ([4]; dose 1%, 1 dose/day, duration 4 weeks, study 10 (vehicle >35)) was over 35 days and the “Day on which 50% incidence” value ([4]; dose 1%, 1 dose/day, duration 4 weeks, study 12 (vehicle >35)) was 18 days. The “Day on which 50% incidence” value ([4]; dose 1%, 2 doses/day, duration 2 weeks, study 1 (vehicle >35)) was 25 days, the “Day on which 50% incidence” value ([4]; dose 1%, 2 doses/day, duration 2 weeks, study 2 (vehicle >35)) was 28 days and the Rate of conjugation [5] was “high”.
In the case of `Nc1cc(N2CCCCC2)nc(N)[n+]1[O-]` [Minoxidil, minoxidil, reference compound], the “Day on which 50% incidence” value ([4]; dose 2.5%, 1 dose/day, duration 1 week, study 13 (vehicle 56)) is reported as 53 days, the “Day on which 50% incidence” value ([4]; dose 2.5%, 1 dose/day, duration 4 weeks, study 13 (vehicle 58)) is reported as 39 days and the “Day on which 50% incidence” value ([4]; dose 5%, 1 dose/day, duration 1 week, study 13 (vehicle 56)) is reported as 56 days. For the same compound, the “Day on which 50% incidence” value ([4]; dose 5%, 1 dose/day, duration 4 weeks, study 13 (vehicle 58)) was 37 days.
